Laboratory results reported in patent US20160272992A1, “PROTECTION OF PLANTS AGAINST OXIDATIVE STRESS” (priority 2013, published 2016).

How the values were obtained:
[1] = system: SIM/SMR promoters; experiment: SIM/SMR promoter:GUS transcriptional reporter lines; type: in vivo, Arabidopsis thaliana
Description: SIM/SMR promoter sequences were amplified from genomic DNA by PCR using the primers described in Table 5. The product fragments were created with the Pfu DNA Polymerase Kit (Promega, Catalog #M7745), and were cloned into a pDONR P4-Plr entry vector by BP recombination cloning and subsequently transferred into the pMK7S*NFml4GW,0 destination vector by LR cloning, resulting in a transcriptional fusion between the promoter of the SMR genes and the nlsGFP-GUS fusion gene (Karimi et al., 2007). For the overexpression constructs, the SMR coding regions were amplified using primers described in Table 5, and cloned into the pDONR221 vector by BP recombination cloning and subsequently transferred into the pK2GW7 destination vector (Kamimi et al., 2002) by LR cloning. All constructs were transferred into the Agrobacterium tumefaciens C58C1RifR strain harboring the pMP90 plasmid. The obtained Agrobacterium strains were used to generate stably transformed Arabidopsis lines with the floral dip transformation method (Clough and Bent, 1998). Transgenic plants were obtained on kanamycin-containing medium and later transferred to soil for optimal seed production.
Complete seedlings or tissue cuttings were stained in multiwell plates (Falcon 3043; Becton Dickinson). GUS assays were performed as described by Beeckman and Engler (1994). Samples mounted in lactic acid were observed and photographed with a stereomicroscope (Olympus BX51 microscope) or with a differential interference contrast (DIC) microscope (Leica).
To confirm involvement of SIM/SMR genes in the genotoxic stress response, transcriptional reporter lines containing the putative upstream promoter sequences were constructed for all. After selection of representative reporter lines, one-week-old seedlings were transferred to control medium, or medium supplemented with HU (resulting into stalled replication forks) or bleomycin (causing DSBs).

[2] = system: catalase; experiment: Catalase assay (H2O2 breakdown by leaf protein extract); type: biochemical, Arabidopsis thaliana; conditions: extracts of control plants germinated on 1 mM HU
Protocol: Plants were germinated on either control medium, medium with 1 mM HU or 6 μM 3-AT. Leaf tissue of 10 plants was ground in 200 μL extraction buffer (60 mM Tris (pH 6.9), 1 mM phenylmethylsulfonylfluoride, 10 mM DTT) on ice. The homogenate was centrifuged at 13,000 g for 15 minutes at 4° C. A total of 45 μg protein extract was mixed with potassium phosphate buffer (50 mM, pH 7.0) (Vandenabeele et al., 2004). After addition of 11.4 μL H2O2 (7.5%), the absorbance of the sample at 240 nm after 0 and 60 seconds was measured to determine catalase activity by H2O2 breakdown (Beers and Sizer, 1952; Vandenabeele et al., 2004).

[3] = system: Arabidopsis seedlings; experiment: High-light transfer of seedlings: PSII efficiency (chlorophyll a fluorescence) and leaf appearance; type: in vivo, Arabidopsis thaliana
Protocol: Unless stated otherwise, plants of Arabidopsis thaliana (L.) Heyhn (ecotype Columbia), were grown under long-day conditions (16 hours of light, 8 hours of darkness) at 22° C. on half-strength Murashige and Skoog (MS) germination medium (Murashige and Skoog, 1962). Arabidopsis plants were treated with HU as described by Cools et al. (2011). […] For light treatments, one-week-old seedlings were transferred to continuous high-light conditions (growth rooms kept at 22° C. with 24-hour day/0-hour night cycles and a light intensity of 300-400 μmol m^−2 s^−1) for 2 days, and subsequently retransferred to low-light conditions.
Chlorophyll a fluorescence parameters were measured using the IMAGING PAM M-Series Chlorofyll Fluorescence (Walz) and associated software.

[4] = system: 5-day-old wild-type root tips; conditions: 2-mM hydroxyurea; cited from earlier work
[5] = system: ZmSMRg and ZmSMRh; experiment: qRT-PCR of maize SMR genes after HU treatment; type: in vivo; conditions: root tips and leaves

## NC(=O)NO [HU, hydroxyurea]
[1]; one-week-old seedlings, 1 mM HU, GUS assay 24 hours after transfer
  transcriptional induction of SMR4, SMR5 and SMR7 reporters in the root meristem: strong transcriptional induction
[1]; treated for 24 hours
  induction of SMR5 and SMR7 GUS reporters in the proliferating leaf: induced
[2]
  H2O2 decomposition rate of plant extracts: reduced H2O2 decomposition rate
[3]; one-week-old seedlings, 48 hours high light, in the presence of HU vs absence
  maximum quantum efficiency of PSII (F′v/F′m): decrease was even more pronounced
[3]; plants grown in the presence of HU, within 48 hours after transfer
  anthocyanin accumulation after transfer to high light: accumulated anthocyanins in the young leaf tissue
[4]
  HU 24 h/0 h fold change, AT1G07500 (Siamese-related 5): 7.863
  HU 24 h/0 h fold change, AT1G09815 (polymerase delta 4): 2.354
  HU 24 h/0 h fold change, AT1G12020 (unknown protein): 1.873
  HU 24 h/0 h fold change, AT1G13330 (Hop2 homolog): 2.949
  HU 24 h/0 h fold change, AT1G17460 (TRF-like 3): 2.378
  HU 24 h/0 h fold change, AT1G30600 (Subtilase family protein): 1.711
  HU 24 h/0 h fold change, AT1G31280 (Argonaute family protein): 1.866
  HU 24 h/0 h fold change, AT1G49030 (PLAC8 family protein): 1.553
  HU 24 h/0 h fold change, AT1G59660 (Nucleoporin autopeptidase): 1.860
  HU 24 h/0 h fold change, AT1G76180 (Dehydrin family protein): 1.659
  HU 24 h/0 h fold change, AT2G18600 (Ubiquitin-conjugating enzyme family protein): 5.521
  HU 24 h/0 h fold change, AT2G21790 (ribonucleotide reductase 1): 2.514
  HU 24 h/0 h fold change, AT2G30360 (SOS3-interacting protein 4): 2.274
  HU 24 h/0 h fold change, AT2G31320 (poly(ADP-ribose) polymerase 2): 2.445
  HU 24 h/0 h fold change, AT2G36910 (ATP binding cassette subfamily B1): 1.569
  HU 24 h/0 h fold change, AT2G45460 (SMAD/FHA domain-containing protein): 2.378
  HU 24 h/0 h fold change, AT2G46610 (RNA-binding RRM/RBD/RNP motifs family protein): 3.593
  HU 24 h/0 h fold change, AT2G47680 (zinc finger CCCH type helicase family protein): 3.422
  HU 24 h/0 h fold change, AT3G02400 (SMAD/FHA domain-containing protein): 2.479
  HU 24 h/0 h fold change, AT3G07800 (Thymidine kinase): 7.160
  HU 24 h/0 h fold change, AT3G12510 (MADS-box family protein): 2.266
  HU 24 h/0 h fold change, AT3G15240 (Serine/threonine-protein kinase WNK-related): 1.790
  HU 24 h/0 h fold change, AT3G20490 (unknown protein): 2.313
  HU 24 h/0 h fold change, AT3G25250 (AGC kinase family protein): 1.853
  HU 24 h/0 h fold change, AT3G27060 (Ferritin/ribonucleotide reductase-like family protein): 4.595
  HU 24 h/0 h fold change, AT3G27620 (alternative oxidase 1C): 2.056
  HU 24 h/0 h fold change, AT3G27950 (GDSL-like Lipase/Acylhydrolase superfamily protein): 1.641
  HU 24 h/0 h fold change, AT3G42860 (zinc knuckle CCHC-type family protein): 2.445
  HU 24 h/0 h fold change, AT3G45730 (unknown protein): 5.637
  HU 24 h/0 h fold change, AT4G02390 (Poly(ADP-ribose) polymerase): 7.701
  HU 24 h/0 h fold change, AT4G04750 (Major facilitator superfamily protein): 1.625
  HU 24 h/0 h fold change, AT4G11740 (Ubiquitin-like superfamily protein): 1.653
  HU 24 h/0 h fold change, AT4G15480 (UDP-Glycosyltransferase superfamily protein): 2.196
  HU 24 h/0 h fold change, AT4G19130 (Replication factor-A protein 1-related): 2.305
  HU 24 h/0 h fold change, AT4G21070 (Breast cancer susceptibility1): 10.375
  HU 24 h/0 h fold change, AT4G22960 (Unknown function DUF544): 5.315
  HU 24 h/0 h fold change, AT4G28950 (RHO-related protein from plants 9): 9.680
  HU 24 h/0 h fold change, AT4G29170 (Mnd1 family protein): 2.898
  HU 24 h/0 h fold change, AT4G35740 (DEAD/DEAH box RNA helicase family protein): 2.594
  HU 24 h/0 h fold change, AT5G02220 (unknown protein; SMR4): 4.500
  HU 24 h/0 h fold change, AT5G03780 (TRF-like 10): 7.111
  HU 24 h/0 h fold change, AT5G06190 (unknown protein): 2.878
  HU 24 h/0 h fold change, AT5G11460 (Protein of unknown function DUF581): 5.483
  HU 24 h/0 h fold change, AT5G14920 (Gibberellin-regulated family protein): 2.789
  HU 24 h/0 h fold change, AT5G14930 (senescence-associated gene 101): 1.542
  HU 24 h/0 h fold change, AT5G20850 (RAS associated with diabetes protein 51): 4.643
  HU 24 h/0 h fold change, AT5G24280 (Gamma-irradiation and mitomycin c induced 1): 4.823
  HU 24 h/0 h fold change, AT5G25810 (Integrase-type DNA-binding superfamily protein): 1.558
  HU 24 h/0 h fold change, AT5G40840 (Rad21/Rec8-like family protein): 3.375
  HU 24 h/0 h fold change, AT5G48720 (X-ray induced transcript 1): 5.296
  HU 24 h/0 h fold change, AT5G49480 (Ca2+-binding protein 1): 1.952
  HU 24 h/0 h fold change, AT5G55490 (Gamete expressed protein 1): 1.670
  HU 24 h/0 h fold change, AT5G60100 (pseudo-response regulator 3): 1.619
  HU 24 h/0 h fold change, AT5G60250 (Zinc finger C3HC4-type RING finger family protein): 8.907
  HU 24 h/0 h fold change, AT5G64060 (NAC domain containing protein 103): 5.579
  HU 24 h/0 h fold change, AT5G66130 (RADIATION SENSITIVE 17): 2.888
  HU 24 h/0 h fold change, AT5G66985 (unknown protein): 3.294
  HU 24 h/0 h fold change, AT5G67360 (Subtilase family protein): 1.676
  HU 24 h/0 h fold change, AT5G67460 (O-Glycosyl hydrolases family 17 protein): 2.799
[5]
  transcriptional induction of maize SMR genes ZmSMRg and ZmSMRh: strong up-regulation
